One assay deals with BT-474 cells. Description: In vitro cytotoxicity, SRB assay, 72 h dose-response. The note with it: Homo sapiens. It counts as cell-based. The text has this:
(§1) Nature Protocols, 1, 1112-1 116.
(In general: The SRB assay estimates cell density from bound dye.)

The next assay has as its system MDA-MB-231 cells. Described as above. The format is cell-based. The note with it: Homo sapiens, MDA-MB-231, 72 h.
Text: as §1

The subject of a further assay is SK-OV-3 cells. Described as above. It counts as cell-based. The note with it: Homo sapiens.
Text: as §1

The next assay relates to Raji cells. Description: In vitro cytotoxicity, MTT assay, 72 h dose-response. It counts as cell-based, human. The note with it: CD13−, CD20+, CD5−, CD4−.
Assay [1] concerns BT-474, HCC-1954, SK-BR-3, MDA-MB-231, MCF-7 and SK-OV-3 cells. Description: In vitro cytotoxicity, whole cell panel of Bioactivity Example 1. It counts as cell-based. The note with it: Homo sapiens. The text has this: (§2) All tumor cell lines used in this study were obtained from the American Type Culture Collection (ATCC), unless otherwise indicated; BT-474 (ATCC HTB-20, Breast Ductal Carcinoma), SK-BR-3 (ATCC HTB-30, Breast Adenocarcinoma) and HCC-1954 (ATCC CRL-2338, Breast Ductal Carcinoma), all HER2+; MDA-MB-231 (ATCC HTB-26, Breast Adenocarcinoma) and MCF-7 (ATCC HTB-22 Breast Adenocarcinoma, pleural effusion), all HER2-; SK-OV-3 (ATCC HTB-77, Ovary Adenocarcinoma), HER2+; NB-4 (Acute Promyelocytic Leukemia, APL, CD13+, M. Lanotte et al. (1991) NB4, a maturation inducible cell line with t(15;17) marker isolated from a human acute promyelocytic leukemia (M3). Blood 77, 1080-1086), (CD13+) and U937 (ATCC CRL-1 593.2, Histiocytic Lymphoma, CD13+ and CD4+); Raji (ATCC CCL-86, Burkitt's Lymphoma) (CD13−, CD20+, CD5−, and CD4−); RPMI-8226 (ATCC CRM-CCL-155, Multiple Myeloma) (CD13−, CD20−, CD5− and CD4−); Karpas-299 (DSMZ ACC-31, Non-Hodgkin's Lymphoma) (CD20−, CD5+, and CD4+); MOLT-4 (ATCC CRL-1 582, Acute Lymphoblastic Leukemia, CD5+). In addition, the two Raji cell (ATCC CCL-86, Burkitt's Lymphoma) clones used in this study Raji-clone #10 (high CD5 expression) and Raji-clone18 (null CD5 expression), were provided by Dr. Juan M. Zapata (Instituto de Investigaciones Biomedicas “Alberto Sols”, CSIC-UAM, Madrid, Spain). Cells were maintained at 37° C., 5% CO 2 and 95% humidity in Dulbecco's Modified Eagle's Medium (DMEM) (for MCF and MDA-MB-231 cells), RPMI-1640 (for SK-BR-3, HCC-1954, NB-4, U937, Raji, RPMI-8226, Karpas-299, MOLT-4, Raji-clone #10 and Raji-clone #18 cells), RPMI-1640+1% ITS (for BT-474 cells) or McCOyS (for SK-OV-3 cells), all media supplemented with 10% Fetal Calf Serum (FCS) and 100 units/mL penicillin and streptomycin.
For adherent cells: A colorimetric assay using sulforhodamine B (SRB) was adapted for quantitative measurement of cell growth and cytotoxicity, as described in V. Vichai and K. Kirtikara (2006) Sulforhodamine B colorimetric assay for cytotoxicity screening. Nature Protocols, 1, 1112-1 116. Briefly, cells were seeded in 96-well microtiter plates and allowed to stand for 24 hours in drug-free medium before treatment with vehicle alone or the indicated compounds for 72 hours. For quantification, cells were washed twice with phosphate buffered saline (PBS), fixed for 15 min in 1% glutaraldehyde solution, rinsed twice with PBS, stained in 0.4% SRB-1% acetic acid solution for 30 min, rinsed several times with 1% acetic acid solution and air-dried. SRB was then extracted in 10 mM trizma base solution and the optical density measured at 490 nm in a microplate spectrophotometer. Cell survival was expressed as percentage of control, untreated cell survival. […]

Assay [2] deals with HCC-1954, SK-BR-3, MDA-MB-231 and MCF-7 cells. Description: In vitro cytotoxicity, whole breast cancer cell panel.
Text: as §2
For adherent cells: A colorimetric assay using sulforhodamine B (SRB) was adapted for quantitative measurement of cell growth and cytotoxicity, as described in V. Vichai and K. Kirtikara (2006) Sulforhodamine B colorimetric assay for cytotoxicity screening. Nature Protocols, 1, 1112-1 116. Briefly, cells were seeded in 96-well microtiter plates and allowed to stand for 24 hours in drug-free medium before treatment with vehicle alone or the indicated compounds for 72 hours. For quantification, cells were washed twice with phosphate buffered saline (PBS), fixed for 15 min in 1% glutaraldehyde solution, rinsed twice with PBS, stained in 0.4% SRB-1% acetic acid solution for 30 min, rinsed several times with 1% acetic acid solution and air-dried. SRB was then extracted in 10 mM trizma base solution and the optical density measured at 490 nm in a microplate spectrophotometer. Cell survival was expressed as percentage of control, untreated cell survival.
The IC50 value refers to the concentration of compound inducing a 50% of cell death as compared to the control cell survival.
Standard dose-response (DR) curves for 72 hours were performed.

Another assay deals with HCC-1954 cells. The experiment in a line: In vitro cytotoxicity, SRB assay, 72 h dose-response. It counts as cell-based. The note with it: Homo sapiens, HCC1954, 72 h.
Text: as §1

Another assay relates to SK-BR-3 cells. The description is as above. It counts as cell-based. The note with it: Homo sapiens, SK-BR-3, 72 h.
The subject of assay [3] is Raji cell clones #10 (high CD5) and #18 (null CD5). Description: In vitro cytotoxicity, the two Raji cell clones. The format is cell-based, human. The note with it: from mean IC50. How it is done: J. Immunol. Meth., 65, 55-63.
[…] dose-response (DR) curves for 72 hours were performed.

The values that follow come from patent publication US12410148B2, “Antibody drug conjugates” (Pharma Mar, S.A., priority 2013, dated 2025).

The structures appear in SMILES notation. ≈ marks a conversion by molar mass, not a printed value. Where “and” joins values, the source holds several entries; their conditions need not be identical. Identical values can stand only once. Like-named read-outs stand apart in the source and are kept apart here.

Procedure for Raji cells: Briefly, MTT solution was added to the cell cultures at a final concentration of 0.5 mg/mL, and incubated for 1 to 4 hours at 37° C. until formazan crystals are formed. Culture medium is carefully removed from the cell cultures and formazan crystals resuspended in 100 μl DMSO. […] Cell survival was expressed as percentage of control, untreated cell survival.
Text for SK-BR-3 cells: All tumor cell lines used in this study were obtained from the American Type Culture Collection (ATCC), unless otherwise indicated; BT-474 (ATCC HTB-20, Breast Ductal Carcinoma), SK-BR-3 (ATCC HTB-30, Breast Adenocarcinoma) and HCC-1954 (ATCC CRL-2338, Breast Ductal Carcinoma), all HER2+; MDA-MB-231 (ATCC HTB-26, Breast Adenocarcinoma) and MCF-7 (ATCC HTB-22 Breast Adenocarcinoma, pleural effusion), all HER2-; SK-OV-3 (ATCC HTB-77, Ovary Adenocarcinoma), HER2+; NB-4 (Acute Promyelocytic Leukemia, APL, CD13+, M. Lanotte et al. (1991) NB4, a maturation inducible cell line with t(15;17) marker isolated from a human acute promyelocytic leukemia (M3). […] Cells were maintained at 37° C., 5% CO 2 and 95% humidity in Dulbecco's Modified Eagle's Medium (DMEM) (for MCF and MDA-MB-231 cells), RPMI-1640 (for SK-BR-3, HCC-1954, NB-4, U937, Raji, RPMI-8226, Karpas-299, MOLT-4, Raji-clone #10 and Raji-clone #18 cells), RPMI-1640+1% ITS (for BT-474 cells) or McCOyS (for SK-OV-3 cells), all media supplemented with 10% Fetal Calf Serum (FCS) and 100 units/mL penicillin and streptomycin.
For adherent cells: A colorimetric assay using sulforhodamine B (SRB) was adapted for quantitative measurement of cell growth and cytotoxicity, as described in V. Vichai and K. Kirtikara (2006) Sulforhodamine B colorimetric assay for cytotoxicity screening. […] Briefly, cells were seeded in 96-well microtiter plates and allowed to stand for 24 hours in drug-free medium before treatment with vehicle alone or the indicated compounds for 72 hours. For quantification, cells were washed twice with phosphate buffered saline (PBS), fixed for 15 min in 1% glutaraldehyde solution, rinsed twice with PBS, stained in 0.4% SRB-1% acetic acid solution for 30 min, rinsed several times with 1% acetic acid solution and air-dried. SRB was then extracted in 10 mM trizma base solution and the optical density measured at 490 nm in a microplate spectrophotometer. Cell survival was expressed as percentage of control, untreated cell survival.

In general, IC50 refers to the concentration needed to halve the response being measured. `COC1=CC[C@@H]([C@@H](C)/C=C(C)/C=C\C=C/C(=O)N[C@H](C(=O)N/C=C\C[C@H](C/C=C(\C)Cl)OC(=O)NCCCN)C(C)(C)C)OC1=O` [Compound 4]: the 50% inhibitory concentration (IC50) was 0.00174 µg/mL and 2.62 nM in the assay on BT-474 cells (BT-474, HER2+, 72 h, read-out: IC50); 0.00031 µg/mL and 0.468 nM in the assay on MDA-MB-231 cells (HER2−, 72 h, read-out: IC50); 0.00073 µg/mL and 1.1 nM in the assay on SK-OV-3 cells (SK-OV-3, ovary, HER2+, 72 h, read-out: IC50); 0.00141 µg/mL with Raji cells; 2.12 nM with Raji cells (read-out: IC50); 0.00265 µg/mL and 4 nM with Raji cells (Homo sapiens, Raji, read-out: IC50). Further, the IC50 in assay [1] (six cell lines, read-out: mean IC50 value across the whole cell panel) was 0.000569 µg/mL and 0.857 nM; in assay [1] (six cell lines, two independent experiments, read-out: IC50 values along the different cell lines tested (range)), 0.089 to 1.7 ng/mL (≈ 0.134 to 2.56 nM); in assay [2] (Homo sapiens, read-out: mean IC50 value across the whole cell panel, four breast cell lines), 0.000197 µg/mL and 0.296 nM; in assay [2] (read-out: mean IC50 value across the whole cell panel, four breast cell lines), 0.498 nM. The “mean IC50 value across the whole cell panel” value in assay [2] (four breast cell lines) is 0.33 ng/mL.

Turning to `COC1=CC[C@@H]([C@@H](C)/C=C(C)/C=C\C=C/C(=O)N[C@H](C(=O)N/C=C\C[C@H](C/C=C(\C)Cl)OC(=O)NCCCNC(=O)CCCCCN2C(=O)C=CC2=O)C(C)(C)C)OC1=O` [Compound 1], the IC50 is 0.0064 µg/mL and 7.47 nM in the assay on BT-474 cells (BT-474, 72 h); 0.00096 µg/mL and 1.12 nM in the assay on HCC-1954 cells (HER2+, 72 h, read-out: IC50); 0.0028 µg/mL and 3.27 nM in the assay with MDA-MB-231 cells (HER2−, 72 h, read-out: IC50); 0.0057 µg/mL and 6.66 nM in the assay on SK-OV-3 cells (SK-OV-3, 72 h); 0.00089 µg/mL and 1.04 nM in the assay with SK-BR-3 cells (HER2+, 72 h, read-out: IC50); 0.00089 µg/mL to 0.0064 µg/mL and 1.04 nM to 7.47 nM in assay [1] (read-out: IC50 values along the different cell lines tested (range)). In [1] (read-out: mean IC50 value across the whole cell panel), the 50% inhibitory concentration (IC50) is 0.00341 µg/mL and 3.98 nM. For the same molecule, the “more active in CD5 overexpressing cells (clone #10) than in CD5 null cells (clone #18)” value in [3] is “around 1 log”.

On to `COC1=CC[C@@H]([C@@H](C)/C=C(C)/C=C\C=C/C(=O)N[C@H](C(=O)N/C=C\C[C@H](C/C=C(\C)Cl)OC(N)=O)C(C)(C)C)OC1=O` [Compound 40], for which the IC50 is 7.1e-05 µg/mL and 0.116 nM with HCC-1954 cells; 0.000173 µg/mL and 0.284 nM in the assay on MDA-MB-231 cells; 4.9e-05 µg/mL and 0.081 nM in the assay with SK-BR-3 cells; 0.000115 µg/mL and 0.000285 µg/mL in the assay with Raji cells; 0.19 nM and 0.47 nM in the assay on Raji cells (read-out: IC50); 0.049 to 0.173 ng/mL in assay [2] (Homo sapiens, read-out: IC50 values along the different cell lines tested (range)). Also, in [2] (Homo sapiens, read-out: mean IC50 value across the whole cell panel), the IC50 is 0.000106 µg/mL and 0.175 nM.
